Assay results published in ChEMBL document CHEMBL3885881, “DrugMatrix”.

Organism: Rattus norvegicus
Assay: DrugMatrix - Regimen: Daily Repeat
Assay type: toxicity, organism-based, Sprague-Dawley
Set-up: regimen Daily Repeat, gender Male, age 6-8 weeks
Details: in vivo, sc, route subcutaneous, […]; for ABSOLUTE BASOPHIL / ABSOLUTE EOSINOPHIL / ABSOLUTE LYMPHOCYTE / ABSOLUTE MONOCYTE / ABSOLUTE SEGMENTED NEUTROPHIL / BASOPHIL / EOSINOPHIL / ERYTHROCYTE COUNT / HEMATOCRIT / HEMOGLOBIN / LEUKOCYTE COUNT / LYMPHOCYTE / MEAN CORPUSCULAR HEMOGLOBIN / MEAN CORPUSCULAR HEMOGLOBIN CONCENTRATION / MEAN CORPUSCULAR VOLUME / MONOCYTE / NEUTROPHIL / NUCLEATED RED BLOOD CELLS / PLATELET COUNT: tissue Blood; for ALANINE AMINOTRANSFERASE / ALKALINE PHOSPHATASE / ASPARTATE AMINOTRANSFERASE / BLOOD UREA NITROGEN / CARBON DIOXIDE / CHLORIDE / CHOLESTEROL / CREATINE PHOSPHOKINASE / CREATININE / GLUCOSE / LACTATE DEHYDROGENASE / LIPASE / PHOSPHORUS / POTASSIUM / SODIUM / TOTAL BILIRUBIN / TOTAL PROTEIN / URIC ACID: tissue Plasma
[1] = 0 mg/kg, 72 h, dose level Control, time 3 day
[2] = 0 mg/kg, 120 h, dose level Control, time 5 day
[3] = 17 mg/kg, 72 h, dose level Low, time 3 day

CC(C)Cn1cnc2c(N)nc3ccccc3c21 [IMIQUIMOD]
ABSOLUTE BASOPHIL [1]: 0 CELLS/uL | ABSOLUTE EOSINOPHIL [1]: 42.67 CELLS/uL | ABSOLUTE LYMPHOCYTE [1]: 10202 CELLS/uL | ABSOLUTE MONOCYTE [1]: 261.5 CELLS/uL | ABSOLUTE SEGMENTED NEUTROPHIL [1]: 2193.83 CELLS/uL | BASOPHIL [1]: 0% | EOSINOPHIL [1]: 0.33% | ERYTHROCYTE COUNT [1]: 5.63 x10E6/uL | HEMATOCRIT [1]: 35.35% | HEMOGLOBIN [1]: 13.07 G/DL | LEUKOCYTE COUNT [1]: 12.7 x10E3/uL | LYMPHOCYTE [1]: 81.17% | MEAN CORPUSCULAR HEMOGLOBIN [1]: 23.23 pg | MEAN CORPUSCULAR HEMOGLOBIN CONCENTRATION [1]: 36.97 G/DL | MEAN CORPUSCULAR VOLUME [1]: 62.82 fL | MONOCYTE [1]: 2% | NEUTROPHIL [1]: 16.5% | NUCLEATED RED BLOOD CELLS [1]: 0 /100WBC | PLATELET COUNT [1]: 1180.33 x10E3/uL | ALANINE AMINOTRANSFERASE [1]: 48.67 u/L | ALKALINE PHOSPHATASE [1]: 360.67 u/L | ASPARTATE AMINOTRANSFERASE [1]: 85.5 u/L | BLOOD UREA NITROGEN [1]: 17.83 mg/dL | CARBON DIOXIDE [1]: 26.17 mmol/L | CHLORIDE [1]: 101.83 MEQ/L | CHOLESTEROL [1]: 71 mg/dL | CREATINE PHOSPHOKINASE [1]: 515.17 u/L | CREATININE [1]: 0.22 mg/dL | GLUCOSE [1]: 192.5 mg/dL | LACTATE DEHYDROGENASE [1]: 214.67 u/L | LIPASE [1]: 8.5 u/L | PHOSPHORUS [1]: 12.95 mg/dL | POTASSIUM [1]: 6.39 MEQ/L | SODIUM [1]: 142.38 MEQ/L | TOTAL BILIRUBIN [1]: 0.18 mg/dL | TOTAL PROTEIN [1]: 5.95 G/DL | URIC ACID [1]: 1.83 mg/dL | ABSOLUTE BASOPHIL [2]: 0 CELLS/uL | ABSOLUTE EOSINOPHIL [2]: 188.5 CELLS/uL | ABSOLUTE LYMPHOCYTE [2]: 12360.83 CELLS/uL | ABSOLUTE MONOCYTE [2]: 64.33 CELLS/uL | ABSOLUTE SEGMENTED NEUTROPHIL [2]: 1986.33 CELLS/uL | BASOPHIL [2]: 0% | EOSINOPHIL [2]: 1.33% | ERYTHROCYTE COUNT [2]: 5.52 x10E6/uL | HEMATOCRIT [2]: 35.82% | HEMOGLOBIN [2]: 13.25 G/DL | LEUKOCYTE COUNT [2]: 14.6 x10E3/uL | LYMPHOCYTE [2]: 84.5% | MEAN CORPUSCULAR HEMOGLOBIN [2]: 24.05 pg | MEAN CORPUSCULAR HEMOGLOBIN CONCENTRATION [2]: 36.98 G/DL | MEAN CORPUSCULAR VOLUME [2]: 64.97 fL | MONOCYTE [2]: 0.5% | NEUTROPHIL [2]: 13.67% | NUCLEATED RED BLOOD CELLS [2]: 0 /100WBC | PLATELET COUNT [2]: 1297.83 x10E3/uL | ALANINE AMINOTRANSFERASE [2]: 51.17 u/L | ALKALINE PHOSPHATASE [2]: 393.17 u/L | ASPARTATE AMINOTRANSFERASE [2]: 111 u/L | BLOOD UREA NITROGEN [2]: 18.17 mg/dL | CARBON DIOXIDE [2]: 25 mmol/L | CHLORIDE [2]: 105.17 MEQ/L | CHOLESTEROL [2]: 65.5 mg/dL | CREATINE PHOSPHOKINASE [2]: 911.5 u/L | CREATININE [2]: 0.21 mg/dL | GLUCOSE [2]: 183 mg/dL | LACTATE DEHYDROGENASE [2]: 189 u/L | LIPASE [2]: 8.33 u/L | PHOSPHORUS [2]: 12.78 mg/dL | POTASSIUM [2]: 6.05 MEQ/L | SODIUM [2]: 144.57 MEQ/L | TOTAL BILIRUBIN [2]: 0.25 mg/dL | TOTAL PROTEIN [2]: 5.83 G/DL | URIC ACID [2]: 1.58 mg/dL | ABSOLUTE BASOPHIL [3]: 0 CELLS/uL | ABSOLUTE EOSINOPHIL [3]: 0 CELLS/uL | ABSOLUTE LYMPHOCYTE [3]: 10952 CELLS/uL | ABSOLUTE MONOCYTE [3]: 127.67 CELLS/uL | ABSOLUTE SEGMENTED NEUTROPHIL [3]: 1687 CELLS/uL | BASOPHIL [3]: 0% | EOSINOPHIL [3]: 0% | ERYTHROCYTE COUNT [3]: 5.23 x10E6/uL | HEMATOCRIT [3]: 32.37% | HEMOGLOBIN [3]: 11.97 G/DL | LEUKOCYTE COUNT [3]: 12.77 x10E3/uL | LYMPHOCYTE [3]: 86.33% | MEAN CORPUSCULAR HEMOGLOBIN [3]: 22.9 pg | MEAN CORPUSCULAR HEMOGLOBIN CONCENTRATION [3]: 37 G/DL | MEAN CORPUSCULAR VOLUME [3]: 61.93 fL | MONOCYTE [3]: 1% | NEUTROPHIL [3]: 12.67% | NUCLEATED RED BLOOD CELLS [3]: 0 /100WBC | PLATELET COUNT [3]: 1138.33 x10E3/uL | ALANINE AMINOTRANSFERASE [3]: 57.67 u/L | ALKALINE PHOSPHATASE [3]: 333.67 u/L | ASPARTATE AMINOTRANSFERASE [3]: 91.67 u/L | BLOOD UREA NITROGEN [3]: 17.33 mg/dL | CARBON DIOXIDE [3]: 27 mmol/L | CHLORIDE [3]: 104.67 MEQ/L | CHOLESTEROL [3]: 71 mg/dL | CREATINE PHOSPHOKINASE [3]: 483 u/L | CREATININE [3]: 0.24 mg/dL | GLUCOSE [3]: 177 mg/dL | LACTATE DEHYDROGENASE [3]: 117.33 u/L | LIPASE [3]: 7.67 u/L | PHOSPHORUS [3]: 13 mg/dL | POTASSIUM [3]: 6.18 MEQ/L | SODIUM [3]: 146.27 MEQ/L | TOTAL BILIRUBIN [3]: 0.17 mg/dL | TOTAL PROTEIN [3]: 5.53 G/DL | URIC ACID [3]: 1.6 mg/dL
